Data reported in patent US20240025884A1 (Dong-A ST Co., Ltd., priority 2022, published 2024).

What follows are molecules tested against GCN2 (Homo sapiens (Human), UniProt Q9P2K8) (assay: GCN2 Biochemical Assay (TR-FRET, GFP-eIF2S1 substrate phosphorylation)). Conditions: read-out: IC50 (GCN2 Inhibitory Activity).
Chain of GCN2 (Q9P2K8 whole entry): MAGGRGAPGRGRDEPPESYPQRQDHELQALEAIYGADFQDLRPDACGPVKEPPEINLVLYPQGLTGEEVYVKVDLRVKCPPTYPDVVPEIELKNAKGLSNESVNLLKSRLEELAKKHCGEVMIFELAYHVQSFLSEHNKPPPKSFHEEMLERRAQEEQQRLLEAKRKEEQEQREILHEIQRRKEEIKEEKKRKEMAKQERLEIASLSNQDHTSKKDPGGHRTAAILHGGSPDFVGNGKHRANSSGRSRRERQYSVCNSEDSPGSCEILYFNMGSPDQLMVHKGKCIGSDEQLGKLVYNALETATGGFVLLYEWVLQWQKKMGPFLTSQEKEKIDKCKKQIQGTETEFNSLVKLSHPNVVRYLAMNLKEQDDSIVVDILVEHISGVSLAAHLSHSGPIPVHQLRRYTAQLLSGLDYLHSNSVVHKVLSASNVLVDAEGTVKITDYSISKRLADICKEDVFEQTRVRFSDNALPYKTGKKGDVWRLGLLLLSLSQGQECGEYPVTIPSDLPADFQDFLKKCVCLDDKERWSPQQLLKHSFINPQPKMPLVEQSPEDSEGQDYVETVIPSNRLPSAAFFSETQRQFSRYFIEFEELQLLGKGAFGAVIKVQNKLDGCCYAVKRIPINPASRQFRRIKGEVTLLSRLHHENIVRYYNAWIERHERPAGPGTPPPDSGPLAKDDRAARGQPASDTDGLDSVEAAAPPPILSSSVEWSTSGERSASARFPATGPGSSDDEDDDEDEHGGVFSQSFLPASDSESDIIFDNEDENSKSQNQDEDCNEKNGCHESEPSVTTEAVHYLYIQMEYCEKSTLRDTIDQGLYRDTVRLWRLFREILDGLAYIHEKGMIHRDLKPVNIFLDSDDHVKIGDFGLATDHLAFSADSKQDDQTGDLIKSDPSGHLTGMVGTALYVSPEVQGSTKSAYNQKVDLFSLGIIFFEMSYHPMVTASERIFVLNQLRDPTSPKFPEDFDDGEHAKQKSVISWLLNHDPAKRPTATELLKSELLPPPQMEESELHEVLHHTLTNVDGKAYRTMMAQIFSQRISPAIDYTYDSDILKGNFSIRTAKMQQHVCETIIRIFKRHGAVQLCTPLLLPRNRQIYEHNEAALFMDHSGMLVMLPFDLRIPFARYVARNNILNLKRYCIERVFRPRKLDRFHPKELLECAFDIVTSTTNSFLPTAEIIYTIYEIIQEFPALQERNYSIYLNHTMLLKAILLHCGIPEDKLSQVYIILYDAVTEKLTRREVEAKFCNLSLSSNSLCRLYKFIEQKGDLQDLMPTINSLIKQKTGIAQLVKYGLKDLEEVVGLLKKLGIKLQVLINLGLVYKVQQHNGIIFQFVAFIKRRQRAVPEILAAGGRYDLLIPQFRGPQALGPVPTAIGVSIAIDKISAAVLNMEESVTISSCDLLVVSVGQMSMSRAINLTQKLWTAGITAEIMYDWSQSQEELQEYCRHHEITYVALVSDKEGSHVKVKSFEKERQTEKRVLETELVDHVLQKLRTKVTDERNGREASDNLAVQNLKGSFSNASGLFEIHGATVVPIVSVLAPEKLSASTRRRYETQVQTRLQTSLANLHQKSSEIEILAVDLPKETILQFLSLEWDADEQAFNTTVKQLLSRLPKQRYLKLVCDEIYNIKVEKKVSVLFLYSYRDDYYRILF
Procedure, shortened: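 TR-FRET readout (Ex 340, Em 490/520 nm) after 2–3 h with Tb-labelled phospho-eIF2S1 antibody in stop mix, following a 70 min room-temperature kinase step. Reaction: in-house GCN2, GFP-eIF2S1, ATP, tRNA in Tris pH 7.5 (2× stocks 1.6 nM, 50 nM, 0.2 mM); compounds tested at 10 concentrations, with a phospho-substrate artifact counter-plate.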
Molecule Cc1cnc(Nc2cc(C)n(C)n2)nc1-c1c[nH]c2c(N3C(=O)c4ccc([N+](=O)[O-])cc4C3=O)cccc12 [Example 264, 2-(3-(2-((1,5-dimethyl-1H-pyrazol-3-yl)amino)-5-methylpyrimidin-4-yl)-1H-indol-7-yl)-5-nitroisoindoline-1,3-dione] has an IC50 of under 10 nM. Cc1cnc(Nc2cc(C)n(C)n2)nc1-c1c[nH]c2c(N3C(=O)c4cccnc4C3=O)cccc12 [Example 265, 6-(3-(2-((1,5-dimethyl-1H-pyrazol-3-yl)amino)-5-methylpyrimidin-4-yl)-1H-indol-7-yl)-5H-pyrrolo[3,4-b]pyridine-5,7(6H)-dione] gave an IC50 of under 10 nM. Cc1cnc(Nc2cc(C)n(C)n2)nc1-c1c[nH]c2c(N3Cc4c(Br)cccc4C3=O)cccc12 [Example 266, 4-bromo-2-(3-(2-((1,5-dimethyl-1H-pyrazol-3-yl)amino)-5-methylpyrimidin-4-yl)-1H-indol-7-yl)isoindolin-1-one] showed an IC50 of under 10 nM. Work on Cc1cnc(Nc2cc(C)n(C)n2)nc1-c1c[nH]c2c(N3Cc4ccccc4C3=O)cccc12 [Example 267, 2-(3-(2-((1,5-dimethyl-1H-pyrazol-3-yl)amino)-5-methylpyrimidin-4-yl)-1H-indol-7-yl)isoindolin-1-one] yielded an IC50 of 10 to 100 nM. Molecule Cc1cnc(Nc2cc(C)n(C)n2)nc1-c1c[nH]c2c(N3Cc4ccc([N+](=O)[O-])cc4C3=O)cccc12 [Example 268, 2-(3-(2-((1,5-dimethyl-1H-pyrazol-3-yl)amino)-5-methylpyrimidin-4-yl)-1H-indol-7-yl)-6-nitroisoindolin-1-one] has an IC50 of under 10 nM. With Cc1cnc(Nc2cc(C)n(C)n2)nc1-c1c[nH]c2c(N3Cc4ccc(N)cc4C3=O)cccc12 [Example 269, 6-amino-2-(3-(2-((1,5-dimethyl-1H-pyrazol-3-yl)amino)-5-methylpyrimidin-4-yl)-1H-indol-7-yl)isoindolin-1-one] the IC50 was under 10 nM. Cc1cnc(Nc2cc(C)n(C)n2)nc1-c1c[nH]c2c(N3Cc4cc(Br)ccc4C3=O)cccc12 [Example 270, 5-bromo-2-(3-(2-((1,5-dimethyl-1H-pyrazol-3-yl)amino)-5-methylpyrimidin-4-yl)-1H-indol-7-yl)isoindolin-1-one] was tested, and the IC50 was under 10 nM. Cc1cnc(Nc2cc(C)n(C)n2)nc1-c1c[nH]c2c(N3Cc4c(cccc4[N+](=O)[O-])C3=O)cccc12 [Example 271, 2-(3-(2-((1,5-dimethyl-1H-pyrazol-3-yl)amino)-5-methylpyrimidin-4-yl)-1H-indol-7-yl)-4-nitroisoindolin-1-one] showed an IC50 of under 10 nM. For Cc1cnc(Nc2cc(C)n(C)n2)nc1-c1c[nH]c2c(N3Cc4c(N)cccc4C3=O)cccc12 [Example 272, 4-amino-2-(3-(2-((1,5-dimethyl-1H-pyrazol-3-yl)amino)-5-methylpyrimidin-4-yl)-1H-indol-7-yl)isoindolin-1-one], the IC50 was under 10 nM. For Cc1cnc(Nc2cc(C)n(C)n2)nc1-c1c[nH]c2c(N3Cc4cccc(Cl)c4C3=O)cccc12 [Example 273, 7-chloro-2-(3-(2-((1,5-dimethyl-1H-pyrazol-3-yl)amino)-5-methylpyrimidin-4-yl)-1H-indol-7-yl)isoindolin-1-one], the IC50 was under 10 nM. Molecule Cc1cnc(Nc2cc(C)n(C)n2)nc1-c1c[nH]c2c(N3Cc4cccc([N+](=O)[O-])c4C3=O)cccc12 [Example 274, 2-(3-(2-((1,5-dimethyl-1H-pyrazol-3-yl)amino)-5-methylpyrimidin-4-yl)-1H-indol-7-yl)-7-nitroisoindolin-1-one] has an IC50 of under 10 nM. With Cc1cnc(Nc2cc(C)n(C)n2)nc1-c1c[nH]c2c(N3Cc4cccc(I)c4C3=O)cccc12 [Example 275, 2-(3-(2-((1,5-dimethyl-1H-pyrazol-3-yl)amino)-5-methylpyrimidin-4-yl)-1H-indol-7-yl)-7-iodoisoindolin-1-one] the IC50 was 10 to 100 nM. Cc1cnc(Nc2cc(C)n(C)n2)nc1-c1c[nH]c2c(N3Cc4cccc(N)c4C3=O)cccc12 [Example 276, 7-amino-2-(3-(2-((1,5-dimethyl-1H-pyrazol-3-yl)amino)-5-methylpyrimidin-4-yl)-1H-indol-7-yl)isoindolin-1-one] gave an IC50 of 10 to 100 nM. For Cc1cnc(Nc2cc(C)n(C)n2)nc1-c1c[nH]c2c(N3Cc4cccc(Br)c4C3=O)cccc12 [Example 277, 7-bromo-2-(3-(2-((1,5-dimethyl-1H-pyrazol-3-yl)amino)-5-methylpyrimidin-4-yl)-1H-indol-7-yl)isoindolin-1-one], the IC50 was 10 to 100 nM. With Cc1cnc(Nc2cc(C)n(C)n2)nc1-c1c[nH]c2c(N3Cc4c(I)cccc4C3=O)cccc12 [Example 278, 2-(3-(2-((1,5-dimethyl-1H-pyrazol-3-yl)amino)-5-methylpyrimidin-4-yl)-1H-indol-7-yl)-4-iodoisoindolin-1-one] the IC50 was under 10 nM. Work on COc1ccc2c(c1)C(=O)N(c1cccc3c(-c4nc(Nc5cc(C)n(C)n5)ncc4C)c[nH]c13)C2 [Example 279, 2-(3-(2-((1,5-dimethyl-1H-pyrazol-3-yl)amino)-5-methylpyrimidin-4-yl)-1H-indol-7-yl)-6-methoxyisoindolin-1-one] yielded an IC50 of 10 to 100 nM. For COc1cc(OC)c2c(c1)C(=O)N(c1cccc3c(-c4nc(Nc5cc(C)n(C)n5)ncc4C)c[nH]c13)C2 [Example 280, 2-(3-(2-((1,5-dimethyl-1H-pyrazol-3-yl)amino)-5-methylpyrimidin-4-yl)-1H-indol-7-yl)-4,6-dimethoxyisoindolin-1-one], the IC50 was 100 to 1000 nM. In the case of Cc1cnc(Nc2cc(C)n(C)n2)nc1-c1c[nH]c2c(N3Cc4c(O)cccc4C3=O)cccc12 [Example 281, 2-(3-(2-((1,5-dimethyl-1H-pyrazol-3-yl)amino)-5-methylpyrimidin-4-yl)-1H-indol-7-yl)-4-hydroxyisoindolin-1-one], the IC50 is reported as under 10 nM. Work on Cc1cnc(Nc2cc(C)n(C)n2)nc1-c1c[nH]c2c(N3Cc4cccc(F)c4C3=O)cccc12 [Example 282, 2-(3-(2-((1,5-dimethyl-1H-pyrazol-3-yl)amino)-5-methylpyrimidin-4-yl)-1H-indol-7-yl)-7-fluoroisoindolin-1-one] yielded an IC50 of under 10 nM. With Cc1cnc(Nc2cc(C)n(C)n2)nc1-c1c[nH]c2c(N3Cc4c(Br)ccc(F)c4C3=O)cccc12 [Example 283, 4-bromo-2-(3-(2-((1,5-dimethyl-1H-pyrazol-3-yl)amino)-5-methylpyrimidin-4-yl)-1H-indol-7-yl)-7-fluoroisoindolin-1-one] the IC50 was under 10 nM. For Cc1cnc(Nc2cc(C)n(C)n2)nc1-c1c[nH]c2c(N3Cc4ccc(Br)cc4C3=O)cccc12 [Example 284, 6-bromo-2-(3-(2-((1,5-dimethyl-1H-pyrazol-3-yl)amino)-5-methylpyrimidin-4-yl)-1H-indol-7-yl)isoindolin-1-one], the IC50 was 10 to 100 nM. Molecule Cc1cnc(Nc2cc(C)n(C)n2)nc1-c1c[nH]c2c(N3Cc4cc(Br)cnc4C3=O)cccc12 [Example 285, 3-bromo-6-(3-(2-((1,5-dimethyl-1H-pyrazol-3-yl)amino)-5-methylpyrimidin-4-yl)-1H-indol-7-yl)-5,6-dihydro-7H-pyrrolo[3,4-b]pyridin-7-one] has an IC50 of under 10 nM. Molecule Cc1cnc(Nc2cc(C)n(C)n2)nc1-c1c[nH]c2c(N3Cc4c(Br)ccnc4C3=O)cccc12 [Example 286, 4-bromo-6-(3-(2-((1,5-dimethyl-1H-pyrazol-3-yl)amino)-5-methylpyrimidin-4-yl)-1H-indol-7-yl)-5,6-dihydro-7H-pyrrolo[3,4-b]pyridin-7-one] has an IC50 of under 10 nM. Molecule Cc1cnc2c(c1)CN(c1cccc3c(-c4nc(Nc5cc(C)n(C)n5)ncc4C)c[nH]c13)C2=O [Example 287, 6-(3-(2-((1,5-dimethyl-1H-pyrazol-3-yl)amino)-5-methylpyrimidin-4-yl)-1H-indol-7-yl)-3-methyl-5,6-dihydro-7H-pyrrolo[3,4-b]pyridin-7-one] has an IC50 of under 10 nM. For Cc1cnc(Nc2cc(C)n(C)n2)nc1-c1c[nH]c2c(N3Cc4cccnc4C3=O)cccc12 [Example 288, 6-(3-(2-((1,5-dimethyl-1H-pyrazol-3-yl)amino)-5-methylpyrimidin-4-yl)-1H-indol-7-yl)-5,6-dihydro-7H-pyrrolo[3,4-b]pyridin-7-one], the IC50 was under 10 nM. With Cc1cnc(Nc2cc(C)n(C)n2)nc1-c1c[nH]c2c(N3Cc4c(Br)cncc4C3=O)cccc12 [Example 289, 7-bromo-2-(3-(2-((1,5-dimethyl-1H-pyrazol-3-yl)amino)-5-methylpyrimidin-4-yl)-1H-indol-7-yl)-1,2-dihydro-3H-pyrrolo[3,4-c]pyridin-3-one] the IC50 was under 10 nM. In the case of Cc1cnc(Nc2cc(C)n(C)n2)nc1-c1c[nH]c2c(N3Cc4c(ccnc4Br)C3=O)cccc12 [Example 290, 4-bromo-2-(3-(2-((1,5-dimethyl-1H-pyrazol-3-yl)amino)-5-methylpyrimidin-4-yl)-1H-indol-7-yl)-2,3-dihydro-1H-pyrrolo[3,4-c]pyridin-1-one], the IC50 is reported as under 10 nM. Cc1cnc(Nc2cc(C)n(C)n2)nc1-c1c[nH]c2c(N3Cc4ccc(NC(=O)C5CC5)cc4C3=O)cccc12 [Example 291, N-(2-(3-(2-((1,5-dimethyl-1H-pyrazol-3-yl)amino)-5-methylpyrimidin-4-yl)-1H-indol-7-yl)-3-oxoisoindolin-5-yl)cyclopropanecarboxamide] was tested, and the IC50 was under 10 nM. Molecule Cc1cnc(Nc2cc(C)n(C)n2)nc1-c1c[nH]c2c(N3Cc4cccc(NC(=O)C5CCCCC5)c4C3=O)cccc12 [Example 292, N-(2-(3-(2-((1,5-dimethyl-1H-pyrazol-3-yl)amino)-5-methylpyrimidin-4-yl)-1H-indol-7-yl)-3-oxoisoindolin-4-yl)cyclohexanecarboxamide] has an IC50 of 100 to 1000 nM. Cc1cnc(Nc2cc(C)n(C)n2)nc1-c1c[nH]c2c(N3Cc4cccc(NC(=O)c5ccccc5)c4C3=O)cccc12 [Example 293, N-(2-(3-(2-((1,5-dimethyl-1H-pyrazol-3-yl)amino)-5-methylpyrimidin-4-yl)-1H-indol-7-yl)-3-oxoisoindolin-4-yl)benzamide] showed an IC50 of 100 to 1000 nM. With Cc1cnc(Nc2cc(C)n(C)n2)nc1-c1c[nH]c2c(N3Cc4c(NC(=O)c5ccccc5)cccc4C3=O)cccc12 [Example 294, N-(2-(3-(2-((1,5-dimethyl-1H-pyrazol-3-yl)amino)-5-methylpyrimidin-4-yl)-1H-indol-7-yl)-1-oxoisoindolin-4-yl)benzamide] the IC50 was 10 to 100 nM.
